In ChEMBL document CHEMBL5120791, “Triterpenes from Pholiota populnea as Cytotoxic Agents and Chemosensitizers to Overcome Multidrug Resistance of Cancer Cells” (J Nat Prod, 2022):

What was measured:
COLO 205 = experiment: Cytotoxicity against human COLO 205 cells assessed as reduction in cell viability measured after 24 hrs by MTT assay; assay type: functional, cell-based; details: COLO 205, 24 h
[1] = biological target: ATP-dependent translocase ABCB1 (Homo sapiens, UniProt P08183); experiment: Inhibition of P-gp in human COLO 320 cells assessed as potentiation of doxorubicin-induced cytotoxicity by measuring combination index measured after 72 hrs by checkerboard assay; assay type: cell-based; details: colo 320, 72 h
COLO 320 = experiment: Cytotoxicity against human COLO 320 cells assessed as reduction in cell viability measured after 24 hrs by MTT assay; assay type: functional, cell-based; details: COLO 320, 24 h

Chain of ATP-dependent translocase ABCB1 (P08183 whole entry): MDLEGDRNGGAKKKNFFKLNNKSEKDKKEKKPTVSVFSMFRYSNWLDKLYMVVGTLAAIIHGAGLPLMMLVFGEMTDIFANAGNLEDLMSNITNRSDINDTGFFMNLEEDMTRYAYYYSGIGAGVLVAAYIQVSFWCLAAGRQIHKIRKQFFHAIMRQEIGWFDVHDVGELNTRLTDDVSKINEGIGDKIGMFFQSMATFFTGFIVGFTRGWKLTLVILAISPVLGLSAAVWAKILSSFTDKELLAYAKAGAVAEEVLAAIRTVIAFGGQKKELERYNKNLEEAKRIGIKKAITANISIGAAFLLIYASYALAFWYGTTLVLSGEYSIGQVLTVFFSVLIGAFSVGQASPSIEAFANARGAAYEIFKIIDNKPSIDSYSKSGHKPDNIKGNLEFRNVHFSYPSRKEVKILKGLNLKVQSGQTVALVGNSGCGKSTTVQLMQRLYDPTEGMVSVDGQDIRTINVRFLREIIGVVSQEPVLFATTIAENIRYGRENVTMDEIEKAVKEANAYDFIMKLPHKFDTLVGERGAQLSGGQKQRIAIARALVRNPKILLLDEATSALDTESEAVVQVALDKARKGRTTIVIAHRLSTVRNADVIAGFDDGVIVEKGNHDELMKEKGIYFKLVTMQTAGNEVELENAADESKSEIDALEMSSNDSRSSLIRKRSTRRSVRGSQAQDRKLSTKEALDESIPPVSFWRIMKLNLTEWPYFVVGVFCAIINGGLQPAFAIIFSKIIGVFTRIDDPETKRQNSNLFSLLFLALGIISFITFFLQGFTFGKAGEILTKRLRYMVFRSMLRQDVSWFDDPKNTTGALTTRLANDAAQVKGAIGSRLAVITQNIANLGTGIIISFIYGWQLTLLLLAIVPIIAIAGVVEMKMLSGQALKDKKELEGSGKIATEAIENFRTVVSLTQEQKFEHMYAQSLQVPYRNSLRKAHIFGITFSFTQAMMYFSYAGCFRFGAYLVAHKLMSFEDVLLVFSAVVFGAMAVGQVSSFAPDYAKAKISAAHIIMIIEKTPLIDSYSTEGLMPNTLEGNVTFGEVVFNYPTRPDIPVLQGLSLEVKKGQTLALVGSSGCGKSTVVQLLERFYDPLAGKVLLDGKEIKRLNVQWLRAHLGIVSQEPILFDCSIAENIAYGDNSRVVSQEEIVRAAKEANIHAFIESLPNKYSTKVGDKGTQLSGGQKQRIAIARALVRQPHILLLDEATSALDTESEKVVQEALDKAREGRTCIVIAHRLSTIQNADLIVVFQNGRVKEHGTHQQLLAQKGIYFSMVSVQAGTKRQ

For `CC(C)[C@@H](C)/C=C/[C@@H](C)[C@H]1CC[C@H]2C3=CC[C@H]4CC(=O)CC[C@]4(C)[C@H]3CC[C@]12C`, which IC50 (COLO 205) is on record?
Its IC50 is 11.6 µM.

And the CI50 [1]?
Its CI50 is 0.521.

And the IC50 (COLO 320)?
Its IC50 is 8.4 µM.
